# In article PMC9964319, “Half-Sandwich Rhodium Complexes with Releasable N-Donor Monodentate Ligands: Solution Chemical Properties and the Possibility for Acidosis Activation” (Pharmaceutics, 2023):
# Like-named read-outs stand apart in the source and are kept apart here.
# Columns and labels:
# [1] = Computed fractions of mixed-ligand complexes as function of pH from formation constants; type: physicochemical; conditions: for fraction of the active form (computed): pH 6.0
# Method: With the help of these formation constants, the extent of complex formation can be estimated for a chosen monodentate ligand—complex chemical system under the desired conditions (concentration and pH). Figure 6 and Figure S25 show the computed fractions of the formed, mixed-ligand complexes between pH = 5 and 8 and at a 100 μM concentration (metal complex-to-monodentate ligand ratio = 1:1). The fraction at pH = 7.4 and at pH 6.0–6.7 were compared to each other.
# As an example, the fractions of [Ru(p-cym)(8HQH−1)(mim)]^+ are shown in Figure S26 with decreasing concentration.
# Formation constants shown in Figure 5 and in Table S2 were used for the calculation. Percentages indicate the fraction at pH = 7.4 (blue line) and in the range between pH = 6.0–6.7 (pink rectangle: possible pH of tumor microenvironment during acidosis).
# [2] = Proton dissociation constants of the coordinated water in [M(arene)(N,N/O)(H2O)]2+/+ complexes (UV-vis titration)
# Excerpt: The proton dissociation of the aqua ligand in the [M(arene)(N,N/O)(H2O)]^2+/+ complexes (Scheme 2) results in the inert mixed-hydroxido species (general formula: [M(arene)(N,N/O)(OH)]^+/0).
# [3] = Formation constants of mixed-ligand half-sandwich complexes (UV-vis and 1H NMR); type: physicochemical; conditions: for Formation constant logK of mixed-ligand complex: aqua complex + monodentate ligand, I = 0.10 M (KCl), t = 25.0 °C, UV-vis and 1H NMR; for formation of the mixed-ligand complex: under the applied conditions, 1H NMR, limit of detection 5%
# Method: NMR spectroscopic studies were carried out on a Bruker Avance III HD Ascend 500 Plus instrument. For the aqueous samples, ^1H NMR spectra were recorded with the WATERGATE water suppression pulse scheme using DSS internal standard. The highest peak of DSS was 0.00 ppm. The measurement was very similar to the UV-vis measurement since the complex–to–monodentate ligand ratio was also between 0–10 equivalents; the spectra were recorded after the given waiting time. […] This technique was useful in those cases where no spectral change was visible during the UV-vis titrations.
# In both measurement methods, the formation constant (K) was obtained using the computer program PSEQUAD [38].
# It is worthwhile to mention that the liberation of the bidentate ligand was not detected even at higher monodentate ligand excess (~10), which means that the disruption of the bond between the bidentate ligand and the metal center is not feasible under these conditions. The calculated formation constants are compared in Figure 5 and are collected in Table S2. The formation of the mixed-ligand complexes was not detected in three cases under the applied conditions, namely [Ru(p-cym)(en)(mim)]^2+, [Ru(p-cym)(phen)(mim)]^2+, and [Ru(p-cym)(en)(Py)]^2+. For these complexes, only a higher limit of the formation constant could be given, assuming that a maximum of 5% of the complex would form (limit of detection) under the conditions used for ^1H NMR spectroscopy. Based on Figure 5, the following trends are observed in the formation constants: (i) [RhCp*(en)(H2O)]^2+ and [RhCp*(phen)(H2O)]^2+ have a stronger monodentate ligand-binding ability than the Ru(p-cym) analogs; (ii) the formation constants of the [Ru(p-cym)(8HQH-1)(N)]^+ complexes are similar or somewhat higher than those of the RhCp* analogs; (iii) a stability trend for the monodentate ligand: mim > bim > Py (iv) and the bidentate ligand: 8HQH-1 > phen ≥ en can be seen.
# S. aureus 272123 (MRSA) = assay: Antibacterial assay, MIC in 96-well plates at different pH; type: cell-based; conditions: read-out: MIC
# Excerpt: (§1) The antibacterial effect was studied in two Gram-positive and in two Gram-negative strains. The Gram-positive S. aureus ATCC 25923 (ATCC, Manassas, VA, USA) is a methicillin-susceptible reference bacterial strain, while S. aureus 272123 is a clinical isolate and resistant to methicillin and ofloxacin (MRSA), which was given by Prof. Dr. Leonard Amaral (Institute of Hygiene and Tropical Medicine, Lisbon, Portugal). The Gram-negative strains were E. coli ATCC 25922 (ATCC, Manassas, VA, USA), which is sensitive to antibiotics, and E. coli 32313 (provided by the Institute of Clinical Microbiology, University of Szeged, Hungary), which is resistant to different antibiotics (trimethoprim/sulfamethoxazole, gentamicin, ciprofloxacin, and norfloxacin).
# (§2) The minimum inhibitory concentrations (MICs) of the compounds were determined in 96-well plates based on the Clinical and Laboratory Standard Institute guidelines. The compounds were diluted in 100 μL of Mueller Hinton broth. Then, an overnight bacterial culture diluted 10,000 times in 100 μL of medium was added to each well, with the exception of the medium control wells. For each strain and each tested compound, four pH values were set (5, 6, 7, and 8). Each sample was triplicated.
# [4] = tested on: E. coli ATCC 25922 (sensitive); assay: as above; type: cell-based; conditions: E. coli sensitive, after one day, read-out: MIC
# Excerpt: as §1, §2
# [5] = tested on: S. aureus ATCC 25923 (methicillin-susceptible); assay: as above; type: cell-based; conditions: S. aureus sensitive, after one day, read-out: MIC
# Excerpt: as §1, §2
# [6] = tested on: E. coli 32313 (resistant); assay: as above; type: cell-based; conditions: E. coli resistant, after one day, read-out: MIC
# Excerpt: as §1, §2
# [7] = tested on: Colo205 human colon adenocarcinoma cell line (doxorubicin-sensitive); assay: MTT assay, cytotoxicity at pH 6 and 7; type: cell-based; conditions: Colo205, 72 h incubation, read-out: IC50
# Method: (§3) All cell culture reagents were obtained from Sigma-Aldrich (Merck KGaA, Darmstadt, Germany) and plasticware from Sarstedt (Nümbrecht, Germany). Human colonic adenocarcinoma cell lines Colo205 (catalog number: ATCC-CCL-222) and its doxorubicin-resistant counterpart Colo320 (catalog number: ATCC-CCL-220.1) were purchased from LGC Promochem (Teddington, UK). The cells were cultured in RPMI 1640 medium supplemented with 10% heat-inactivated fetal bovine serum, 2 mM L-glutamine, 1 mM sodium pyruvate, and 100 mM HEPES buffer, adjusting the pH to 6.0 or 7.0. The cells were incubated at 37 °C in a 5% CO2–95% air atmosphere. The semiadherent human colon cancer cells were detached with Trypsin-Versene solution for 5 min at 37 °C.
# (§4) The solutions were freshly prepared prior to measurements (see Section 2.1). […] Firstly, these samples were diluted in complete culture medium; then, two-fold serial dilutions of the compounds were prepared in 100 μL of RPMI 1640, horizontally. The semiadherent colonic adenocarcinoma cells were treated with Trypsin-Versene solution. They were adjusted to a density of 1 × 10^4 cells in 100 μL of RPMI 1640 medium and were added to each well, with the exception of the medium control wells. The final volume of the wells containing compounds and cells was 200 μL. Samples were triplicated. The pH of the medium was adjusted to 6.0 or 7.0.
# (§5) The culture plates were incubated at 37 °C for 72 h; at the end of the incubation period, 20 μL of MTT solution (from a stock solution of 5 mg/mL) was added to each well. After incubation at 37 °C for 4 h, 100 μL of SDS solution (10% in 0.01 M HCI) was added to each well, and the plates were further incubated at 37 °C overnight. Cell growth was determined by measuring the optical density (OD) at 540/630 nm with a Multiscan EX ELISA reader (Thermo Labsystems, Cheshire, WA, USA). […] Curves were fitted using GraphPad Prism software (2022, version 9.4.1, Graphpad Software (LLC) d.b.a Dotmatics, San Diego, CA, USA) using the sigmoidal dose–response model (comparing variable and fixed slopes).
# (§6) The pH-dependent solution speciation of the selected mixed-ligand complexes is an important feature in the hypothesized mechanism of action, and the modeling of acidosis is necessary for the in vitro anticancer assays. In order to find out the cytotoxicity difference based on the pH of the medium, cytotoxic activity was determined at pH 6 and 7 by MTT assay in two human colon adenocarcinoma cell lines (doxorubicin-sensitive Colo205 and doxorubicin-resistant Colo320). […] The mixed-ligand complexes were prepared prior to the measurements, as was already described in Section 2.1. With this method, the effect of the different counter ions could be avoided, and a more adequate comparison of the mixed-ligand complexes could be conducted.
# [8] = tested on: Colo320 human colon adenocarcinoma cell line (doxorubicin-resistant); assay: MTT assay, cytotoxicity at pH 6 and 7; type: cell-based; conditions: Colo320, 72 h incubation, read-out: IC50
# Method: as §3, §4, §5, §6
# [9] = I = 0.10 M (KCl), t = 25.0 °C, UV-vis
# [10] = pH 6, listed as [RhCp*(phen)Cl]Cl +Py
# [11] = pH 7, listed as [RhCp*(phen)Cl]Cl +Py
smiles,measurement,setting,value
Cc1ccc(C(C)C)cc1.Cn1ccnc1.[O-]c1cccc2cccnc12.[Ru+2] [[Ru(p-cym)(8HQH−1)(mim)]^+],difference in computed fraction (dissociated) when pH decreases from 7.4 to 6.0,"[1]; 100 μM, ratio 1:1",10%
same,fraction of the active form (computed),[1]; concentration 1 mM,5%
same,fraction of the active form (computed),[1]; concentration two orders of magnitude below 1 mM,41%
Cc1ccc(C(C)C)cc1.O.[Ru+2].c1cnc2c(c1)ccc1cccnc12 [[Ru(p-cym)(phen)(H2O)]2+],pKa of the coordinated water molecule,[2]; [9],8.91±0.01
Cc1c(C)c(C)[c-](C)c1C.O.[O-]c1cccc2cccnc12.[Rh+3] [[RhCp*(8HQH-1)(H2O)]+],pKa of the coordinated water molecule,[2],10.6±0.1
Cc1ccc(C(C)C)cc1.[Ru+][O]c1cccc2cccnc12.c1ccncc1 [[RuCym(8HQH-1)(H2O)]+ + Py],Formation constant logK of mixed-ligand complex,[3],1.6 ± 0.2
Cc1ccc(C(C)C)cc1.NCCN.O.[Ru+2] [[Ru(p-cym)(en)(H2O)]2+],pKa of the coordinated water molecule,[2]; [9],9.03±0.01
Cc1ccc(C(C)C)cc1.Cn1ccnc1.[Ru+2].c1cnc2c(c1)ccc1cccnc12 [[Ru(p-cym)(phen)(mim)]^2+],formation of the mixed-ligand complex,[3],not detected
Cc1ccc(C(C)C)cc1.NCCN.[Ru+2].c1ccncc1 [[Ru(p-cym)(en)(Py)]^2+],Formation constant logK of mixed-ligand complex,[3],< 1.5
same,formation of the mixed-ligand complex,[3],not detected
Cc1c(C)c(C)[c-](C)c1C.[Rh+3].c1ccc2[nH]cnc2c1.c1cnc2c(c1)ccc1cccnc12 [[RhCp*(phen)(bim)]^2+],Formation constant logK of mixed-ligand complex,[3],4.9 ± 0.2
Cc1ccc(C(C)C)cc1.NCCN.[Ru+2].c1ccc2[nH]cnc2c1 [[RuCym(en)(H2O)]2+ + bim],Formation constant logK of mixed-ligand complex,[3],3.5 ± 0.1
Cc1c(C)c(C)[c-](C)c1C.[Cl-].[Rh+2][O]c1cccc2cccnc12.c1ccncc1 [[RhCp*(8HQH−1)Cl] +Py],Formation constant logK of mixed-ligand complex,[3],3.0 ± 0.1
same,MIC,"S. aureus 272123 (MRSA); pH 6, after one day",50 µM
same,MIC,"S. aureus 272123 (MRSA); pH 7, after one day",12.5 µM
same,MIC,[4]; pH 6,>100 µM
same,MIC,[4]; pH 7,>100 µM
same,MIC,[5]; pH 7,12.5 µM
same,MIC,[6]; pH 6,>100 µM
same,MIC,[6]; pH 7,>100 µM
same,IC50,[7]; pH 6,7.2 ± 0.4 µM
same,IC50,[7]; pH 7,7.3 ± 0.3 µM
same,IC50,[8]; pH 6,6.2 ± 0.5 µM
same,IC50,[8]; pH 7,5.9 ± 0.1 µM
Cc1c(C)c(C)[c-](C)c1C.NCCN.[Rh+3].c1ccc2[nH]cnc2c1 [[RhCp*(en)(H2O)]2+ + bim],Formation constant logK of mixed-ligand complex,[3],3.3 ± 0.2
Cc1ccc(C(C)C)cc1.[Ru+][O]c1cccc2cccnc12.c1ccc2[nH]cnc2c1 [[RuCym(8HQH-1)(H2O)]+ + bim],Formation constant logK of mixed-ligand complex,[3],2.9 ± 0.1
Cc1c(C)c(C)[c-](C)c1C.[Rh+3].c1ccncc1.c1cnc2c(c1)ccc1cccnc12 [[RhCp*(phen)(Py)]^2+],Formation constant logK of mixed-ligand complex,[3],4.1 ± 0.1
same,MIC,"S. aureus 272123 (MRSA); pH 5, after one day",> 100 µM
same,MIC,"S. aureus 272123 (MRSA); pH 6, after one day, listed as [RhCp*(phen)Cl]Cl +Py",>100 µM
same,MIC,"S. aureus 272123 (MRSA); pH 7, after one day, listed as [RhCp*(phen)Cl]Cl +Py",>100 µM
same,MIC,"S. aureus 272123 (MRSA); pH 8, after one day",> 100 µM
same,MIC,[4]; pH 5,> 100 µM
same,MIC,[4]; [10],>100 µM
same,MIC,[4]; [11],>100 µM
same,MIC,[4]; pH 8,> 100 µM
same,MIC,[5]; [11],>100 µM
same,MIC,[5]; pH 8,> 100 µM
same,MIC,[6]; pH 5,> 100 µM
same,MIC,[6]; [10],>100 µM
same,MIC,[6]; [11],>100 µM
same,MIC,[6]; pH 8,> 100 µM
Cc1c(C)c(C)[c-](C)c1C.[Rh+2][O]c1cccc2cccnc12.c1ccc2[nH]cnc2c1 [[RhCp*(8HQH-1)(H2O)]+ + bim],Formation constant logK of mixed-ligand complex,[3],3.4 ± 0.1
Cc1ccc(C(C)C)cc1.O.[O-]c1cccc2cccnc12.[Ru+2] [[Ru(p-cym)(8HQH-1)(H2O)]+],pKa of the coordinated water molecule,[2]; [9],9.31±0.01
